Data on 5 molecules can be found in ChEMBL document CHEMBL1149677, “Synthesis of fluorescent and photoaffinity-labeled derivatives of bisphenol A and their inhibitory activity toward hypoxic expression of erythropoietin” (Bioorg Med Chem Lett, 2007).

What all share (assay type): functional, cell-based
The subject of assay [1] is Hep 3B2. The experiment in a line: Inhibition of erythropoietin expression in human Hep3B cells.
Assay [2] deals with Hep 3B2. The experiment in a line: Inhibition of erythropoietin expression in human Hep3B cells at 300 uM.
Assay [3] concerns Hep 3B2. Description: Inhibition of erythropoietin expression in human Hep3B cells at 200 uM.

The source made the active and inactive calls. No cut-off for these calls is given here.

As for `COCOc1ccc(C(C)(C)c2ccc(OCCCCNc3ccc([N+](=O)[O-])c4nonc34)cc2)cc1`, in the assay with Hep 3B2 [1], the outcome was Active.
For `CC(C)(c1ccc(OCCNc2ccc([N+](=O)[O-])c3nonc23)cc1)c1ccc(OCCOc2ccc(C3(C(F)(F)F)N=N3)cc2)cc1`, the outcome with Hep 3B2 [2] was Active.
`COCOc1ccc(C(C)(C)c2ccc(OCCCCOc3ccc(C4(C(F)(F)F)N=N4)cc3)cc2)cc1`: the outcome in the assay with Hep 3B2 [1] was inactive.
For the molecule `CC(C)(c1ccc(O)cc1)c1ccc(OCCCCNc2ccc([N+](=O)[O-])c3nonc23)cc1`, in the assay on Hep 3B2 [1], the outcome was Active.
With `CC(C)(c1ccc(OCCCCNc2ccc([N+](=O)[O-])c3nonc23)cc1)c1ccc(OCCCCOc2ccc(C3(C(F)(F)F)N=N3)cc2)cc1`, the outcome in the assay on Hep 3B2 [3] was Active.
